Test results: patent US6310093A (priority 1998, dated 2001)
Where “and” joins values, the source holds several entries; their conditions need not be identical. Equal values may be shown once.

Columns and labels:
glutaminase = details: Kovacevic and McGiven, 1983; read-out: Km of glutaminase for glutamine; cited from earlier work
[1] = system: ischemic penumbra (dialysate glutamate); assay: In vivo microdialysis of ischemic penumbra after MCAO; set-up: species or system rat; details: 10 mM glutamine plus 20 mM sodium phosphate, 1 h; ±115%
Procedure: In further microdialysis experiments, exogenous glutamine was added to the ischemic penumbra via the probe, and dialysis glutamate was measured, as described in Example 7. When 10 mM glutamine plus 20 mM sodium phosphate were perfused into the penumbra for one hour, dialysate glutamate was elevated 315% as compared to control (±115%). […] The effects on glutamate were much more pronounced than on other amino acids measured; therefore, these studies provided further support for the involvement of extracellular glutaminase activity in producing the elevated levels of glutamate in cortical tissue undergoing ischemic damage.
The middle cerebral arteries of rats were occluded as in EXAMPLE 7, and the rats were returned to their cages overnight. The next morning, dialysis probes ([…], 2 mm length, 20,000 dalton cutoff) were inserted into ischemic penumbra (cortex) and perfused with artificial CSF at 3 μl/min for 1 h prior to collection of 10 minute fractions of dialysate. The effectiveness of the occlusion and the placement of probes were verified by TTC staining of 1 mm sections at the conclusion of the experiment. Amino acids in the dialysate were measured by reverse phase HPLC with fluorescence detection, after derivatization of the dialysates with o-phthaldialdehyde and N-acetyl-L-cysteine […]

[2] = system: glial cultures (astrocytes); assay: Glutamate production in intact glial cultures with added glutamine; type: cell-based, mouse (Swiss Webster)
Procedure: The glutamate concentration of glial cultures was maintained below 1 μM when cells were maintained in the absence or presence of 2 mM added glutamine or when subjected to hypoxic conditions (see below). The medium glutamate concentration remained unchanged between 7 and 24 h after medium change and was 0.14±0.04 μM and 0.36±0.06μM in medium containing 0.15 mM or 2.0 mM glutamine, respectively. Based on these steady state concentrations and the measured rate of glutamate uptake, the rates of glutamate production in the absence and presence of added glutamine were calculated to be 0.012 μM/min (4.8 pmol/min) and 0.030 μM/min (12 pmol/min), respectively. Thus, the calculated rates of glutamate production by glial cultures are only slightly affected by the addition of glutamine and are similar to those observed in intact neurons cultured in the absence of added glutamine.
Pre-column derivatization with o-phthalaldehyde (OPA, Sigma) and separation by reversed phase HPLC was used. A Gilson HPLC was fitted with a Hewlett-Packard model 1046A fluorimetric detector (excitation 340 nm, emission 420 nm). Medium was collected from cell culture at various times, and frozen at -80° C., prior to dilution of 5 or 10 μl into auto-sampler vials containing 40 or 45 μl dimethylformamide:water 1:3 (derivatives with 2-mercaptoethanol) or 1:9 (derivatives with N-acetyl-L-cysteine). […]
In cultures where glutamate concentrations are (within error) constant, d[Glu]/dt is close to zero, and cellular production of medium glutamate is balanced by its removal, such that glutamate production can be calculated from the steady state equation: […]
Calculations were performed using the slopes of the regression lines which describe the rate constants for glutamate removal and the mean values for culture medium glutamate concentrations. […] For comparative purposes, glutamate production rates can be expressed as pmol of glutamate produced per min in each culture. […]

[3] = system: mixed neuronal-astrocyte cultures

SMILES: NC(=O)CC[C@H](N)C(=O)O [Gln, glutamine]
- Km (glutaminase): 2 to 8 mM
- dialysate glutamate elevation vs control [1]: 315%
- Glutamate concentration ([2]; Table 2, glial, 2 mM Gln): 0.36 ± 0.06
- Glutamate production (S) ([2]; Table 2, glial, 2 mM Gln): 0.03
- glutamate production per culture ([2]; glial, 2 mM glutamine): 12 pmol/min
- Glu [3]: 3.1 ± 0.28 and 3.88 ± 0.14
- medium glutamate [3]: 2.3 ± 1.1 μM Glu
